Data on 15 molecules can be found in patent US7772408B1, “Substituted 5-alkoxypsoralens as inhibitors of potassium channel activity in lymphocytes and other cells” (The Regents of the University of California, priority 2002, dated 2010).

Where no end group is shown, it is not given here.

For one data set, the target named is T1, Nav1.2 (Mus musculus, UniProt B1AWN6).
T1 construct: endogenous in cells
The data set can be described thus: Whole-cell patch-clamp, sodium channel Nav1.2 (N1E-115). To be noted: ratio Kd Nav1.2/Kd Kv1.3. It is filed as cell-based. Background: In patch-clamp work, channel activity is measured electrically.

The nature of a further data set: LogP determined by HPLC. Format: physicochemical.
The target in data set [1] is Kv1.3 (UniProt P16390). The data set can be described thus: Whole-cell patch-clamp on a cell line stably expressing Kv1.3. Format: cell-based. More on the design: Kd Kv1.3; other: whole-cell patch-clamp, cell line stably expressing Kv1.3; Kd Kv1.3; mean ± S.D; Kd Kv1.3 (cloned); other: whole-cell patch-clamp, three to five concentrations, n = 3. The following applies: whole-cell patch-clamp, cell line stably expressing Kv1.3; mean ± S.D. How it is done:
(§1) Electrophysiology. All experiments were conducted in the whole-cell configuration of the patch-clamp technique with a holding potential of −80 mV on a cell line stably expressing Kv1.3. Pipette resistances averaged 2.0 MΩ, and series resistance compensation of 80% was employed when currents exceeded 2 nA. Kv1.3 currents were elicited by repeated 200 ms or 2 sec pulses from −80 mV to 40 mV, applied at intervals of 30 or 60 s.

Data set [2] deals with Kv1.3 (UniProt P16390). The description is as above. To be noted: FIG. 1A / 1B. It is filed as cell-based. The procedure: as §1
The next data set addresses potassium channels. The following applies: background statement; read-out: Kd, block of potassium channels; cited from earlier work.
The subject of data set [3] is delayed-type hypersensitivity (DTH) response. To be noted: mini-pigs, cited from earlier work.

T1 sequence (B1AWN6 whole entry): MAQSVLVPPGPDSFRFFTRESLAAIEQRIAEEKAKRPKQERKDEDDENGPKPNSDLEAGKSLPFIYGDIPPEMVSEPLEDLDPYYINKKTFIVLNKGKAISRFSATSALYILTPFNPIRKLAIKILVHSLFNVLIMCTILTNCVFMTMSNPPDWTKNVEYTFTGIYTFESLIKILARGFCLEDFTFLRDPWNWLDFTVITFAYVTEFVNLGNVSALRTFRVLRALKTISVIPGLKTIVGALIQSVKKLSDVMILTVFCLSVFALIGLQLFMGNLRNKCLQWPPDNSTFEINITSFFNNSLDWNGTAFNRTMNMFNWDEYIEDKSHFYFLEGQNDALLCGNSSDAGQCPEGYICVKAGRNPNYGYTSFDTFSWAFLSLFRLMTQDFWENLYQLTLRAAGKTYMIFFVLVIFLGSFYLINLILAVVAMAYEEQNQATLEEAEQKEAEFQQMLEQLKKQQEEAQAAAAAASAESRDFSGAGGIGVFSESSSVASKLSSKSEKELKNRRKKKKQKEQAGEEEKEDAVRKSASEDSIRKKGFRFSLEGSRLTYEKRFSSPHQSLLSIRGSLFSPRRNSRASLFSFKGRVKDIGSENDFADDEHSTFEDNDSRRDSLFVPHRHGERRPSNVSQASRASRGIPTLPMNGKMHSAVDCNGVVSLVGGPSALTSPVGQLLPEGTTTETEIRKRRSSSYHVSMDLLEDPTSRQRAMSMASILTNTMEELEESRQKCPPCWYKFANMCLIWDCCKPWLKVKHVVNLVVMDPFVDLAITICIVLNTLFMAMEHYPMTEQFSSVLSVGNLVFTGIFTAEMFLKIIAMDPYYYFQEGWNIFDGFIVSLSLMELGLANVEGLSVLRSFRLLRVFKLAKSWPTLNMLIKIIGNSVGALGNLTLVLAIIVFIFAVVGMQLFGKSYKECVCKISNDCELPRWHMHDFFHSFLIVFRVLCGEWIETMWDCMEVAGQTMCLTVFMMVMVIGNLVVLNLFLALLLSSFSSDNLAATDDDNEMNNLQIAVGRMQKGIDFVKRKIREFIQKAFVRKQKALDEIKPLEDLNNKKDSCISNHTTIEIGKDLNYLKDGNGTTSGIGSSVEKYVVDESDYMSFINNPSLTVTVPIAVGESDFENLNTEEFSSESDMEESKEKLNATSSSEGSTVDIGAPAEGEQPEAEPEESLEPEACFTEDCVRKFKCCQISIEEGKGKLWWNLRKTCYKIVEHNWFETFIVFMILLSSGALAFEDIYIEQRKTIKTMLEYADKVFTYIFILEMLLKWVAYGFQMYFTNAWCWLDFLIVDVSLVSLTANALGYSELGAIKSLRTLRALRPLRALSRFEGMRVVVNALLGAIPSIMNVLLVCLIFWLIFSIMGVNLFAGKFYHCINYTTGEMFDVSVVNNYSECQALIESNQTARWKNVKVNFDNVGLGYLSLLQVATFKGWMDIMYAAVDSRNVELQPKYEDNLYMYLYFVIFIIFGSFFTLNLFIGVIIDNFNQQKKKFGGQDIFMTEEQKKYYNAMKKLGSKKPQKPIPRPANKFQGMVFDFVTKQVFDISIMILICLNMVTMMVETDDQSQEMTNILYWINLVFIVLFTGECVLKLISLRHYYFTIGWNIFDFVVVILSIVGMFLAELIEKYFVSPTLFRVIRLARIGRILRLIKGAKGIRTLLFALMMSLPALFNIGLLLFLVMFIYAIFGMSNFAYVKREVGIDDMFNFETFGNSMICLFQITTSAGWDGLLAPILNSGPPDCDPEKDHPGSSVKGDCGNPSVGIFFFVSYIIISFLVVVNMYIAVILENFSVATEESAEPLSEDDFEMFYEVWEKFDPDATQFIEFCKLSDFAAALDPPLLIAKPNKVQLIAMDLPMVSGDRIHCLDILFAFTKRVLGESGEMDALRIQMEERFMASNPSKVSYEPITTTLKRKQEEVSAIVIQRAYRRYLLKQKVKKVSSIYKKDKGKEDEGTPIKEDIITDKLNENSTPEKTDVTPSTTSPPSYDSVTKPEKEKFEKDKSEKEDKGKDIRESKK

A word on the chromatographic logP: it is lipophilicity estimated from chromatographic retention. A high value points to higher lipophilicity. What is called melting point is the temperature, or range, at which the solid turns liquid. Broadly, the Kd is a measure of binding affinity in units of concentration. Take `O=c1ccc2c(OCc3ccc(-c4ccccc4)cc3)c3ccoc3cc2o1` [J 20, 5-Biphenylmethoxypsoralen]: the melting point amounted to 187 °C. Moreover, the “S (selectivity over Nav1.2), S = Kd Nav1.2/Kd Kv1.3” value on Nav1.2 is on record as 286. Further, the chromatographic logP in the data set “LogP determined by HPLC” turned out to be 4.4. At Kv1.3 [1], this molecule gave a Kd of 3.5 ± 0.5 nM.
The like results for `O=c1ccc2c(OCCCC3CCCCC3)c3ccoc3cc2o1` [J 21, 4-(3-Cyclohexylpropoxy)-7H-furo[3,2-g][1]benzopyran-7-on] were, in that order, 115 °C, 8, 5.34 and 144 ± 43 nM.
In the case of `O=c1ccc2c(OCCCc3ccccc3)c3ccoc3cc2o1` [J 15, 4-(3-Phenylpropoxy)-7H-furo[3,2-g][1]benzopyran-7-one], the melting point was 109 °C. At Kv1.3 [2], the “inhibition of Kv1.3 current” value is given as “dose-dependent inhibition”. For the same molecule, the “S (selectivity over Nav1.2), S = Kd Nav1.2/Kd Kv1.3” value at Nav1.2 amounted to 397. Also, in the data set “LogP determined by HPLC”, the chromatographic logP was 3.97. The molecule also showed a Kd at Kv1.3 [1] of 6.3 ± 1 nM.
In turn, `O=c1ccc2c(OCCCCCc3ccccc3)c3ccoc3cc2o1` [J 22, 4-(5-Phenylpentoxy)-7H-furo[3,2-g][1]benzopyran-7-one] yielded a melting point of 94.5 °C. The “S (selectivity over Nav1.2), S = Kd Nav1.2/Kd Kv1.3” value at Nav1.2 was 262. In the data set “LogP determined by HPLC”, this molecule yielded a chromatographic logP of 4.71. Further, the affinity at Kv1.3 [1], expressed as Kd, was 6.1 ± 0.7 nM.
For `O=c1ccc2c(OCC3CCCCC3)c3ccoc3cc2o1` [J 14, 4-Cyclohexylmethoxy-7H-furo[3,2-g][1]benzopyran-7-on] the same measures were 153.5 °C, 48, 4.41 and 138 ± 17 nM.
The like results for `O=c1ccc2c(OCCC3CCCCC3)c3ccoc3cc2o1` [J 23, 4-(2-Cyclohexylethoxy)-7H-furo[3,2-g][1]benzopyran-7-on] were, in that order, 117 °C, 11, 4.82 and 132 ± 33 nM.
As to `COc1c2ccoc2cc2oc(=O)ccc12` [5-MOP, 5-Methoxypsoralen], on potassium channels, the Kd was 100000 nM.
In the case of `O=c1ccc2c(OCCCCc3ccccc3)c3ccoc3cc2o1` [J 19 (Psora 4), 4-(4-Phenylbutoxy)-7H-furo[3,2-g][1]benzopyran-7-one], the chromatographic logP in “LogP determined by HPLC” was found to be 4.33.
In turn, `O=c1ccc2c(OC(c3ccccc3)c3ccccc3)c3ccoc3cc2o1` [J 17, 4-Diphenylmethoxy-7H-furo[3,2-g][1]benzopyran-7-on] came in with a melting point of 173 °C. Moreover, the “S (selectivity over Nav1.2), S = Kd Nav1.2/Kd Kv1.3” value at Nav1.2 is given as 38. This molecule also displayed a chromatographic logP in the data set “LogP determined by HPLC” of 4.12. This molecule also came in with a Kd on Kv1.3 [1] of 68 ± 12 nM.
For `O=c1ccc2c(OCCc3ccccc3)c3ccoc3cc2o1` [J 09, 4-(2-Phenylethoxy)-7H-furo[3,2-g][1]benzopyran-7-one] the same measures were 154.5 °C, 41, 3.55 and 169 ± 16 nM.
Molecule `O=c1ccc2c(OC/C=C/c3ccccc3)c3ccoc3cc2o1` [J 16, trans-4-(3-Phenyl-2-propenyloxy)-7H-furo[3,2-g][1]benzopyran-7-on] registered a melting point of 140 °C. At Nav1.2, the “S (selectivity over Nav1.2), S = Kd Nav1.2/Kd Kv1.3” value amounted to 41. Moreover, the chromatographic logP in “LogP determined by HPLC” was 3.79. This molecule registered a Kd at Kv1.3 [1] of 172 ± 37 nM.
Turning to “MgTX: Kv1.3 blocker (TIINVKCTSPKQCLPPCKAQFGQSAGAKCMNGKCKCYPH; ends and bridges not checked; cysteine pairing not given here; UniProt P40755 1-39, looked up)”, in data set [3], the “suppression of primary DTH response” value is listed as “effectively suppress” and the “suppression of secondary DTH response” value is listed as “much less effective”.
Consider `C=C1C[C@@]2(O)[C@@H]3CC[C@@]4(C)[C@@H]5C=CC(=O)OC[C@]5(C(C)OC(C)=O)[C@@H](OC(C)=O)[C@@H](OC(C)=O)[C@@H]4[C@@]3(C)[C@H](OC(C)=O)[C@H](OC(C)=O)[C@@]2(C)C2(C(=O)OC)O[C@H]12` (stereo partly drawn) [correolide], for which, in data set [3], the “suppression of primary DTH response” value was “effectively suppress” and the “suppression of secondary DTH response” value was “much less effective”.
On to `O=c1ccc2c(OCc3ccccc3)c3ccoc3cc2o1` [5-BOP, 4-Benzyloxy-7H-furo[3,2-g][1]benzopyran-7-one], for which the melting point was found to be 136 °C. Moreover, at Nav1.2, the “S (selectivity over Nav1.2), S = Kd Nav1.2/Kd Kv1.3” value stood at 43. In the data set “LogP determined by HPLC”, this molecule registered a chromatographic logP of 3.25. On Kv1.3 [1], this molecule registered a Kd of 350 ± 72 nM.
For `CC(COc1c2ccoc2cc2oc(=O)ccc12)c1ccccc1` (stereo not drawn) [J 12, R,S-4-(2-Phenylpropoxy)-7H-furo[3,2-g][1]benzopyran-7-on] the same measures were 141.5 °C, 25, 3.87 and 72 ± 12 nM.
